According to patent US8927760B2, “Colchicine derivatives or pharmaceutically acceptable salts thereof, method for preparing said derivatives, and pharmaceutical composition comprising said derivatives” (priority 2010, dated 2015):
Values joined by “and” are separate entries in the source; they are usually repeats but may differ in a detail not shown here. Identical values can stand only once.

Key:
spleen cells of rats = test: Cytotoxicity test in rat spleen cells (CCK, absorbance at 450 nm); assay type: cell-based; conditions: 72 hours, at concentrations of 100 ng to 10000 ng/mL
Experimental: Cytotoxicity test was performed to determine the toxicity of immunosuppressant candidate materials by mixing the immunosuppressant candidate materials with spleen cells of rats in culture media and measuring the degree of toxicity in the cells. […] The concentrations of the drugs were 0.1, 1, 10, 100, 1000, 10000, and 100000 ng/mL. The cells were cultured in a CO2 incubator for 72 hours, and then each well was treated with 10 μl of CCK-SK (Dojindo, Japan). Subsequently, the cells were cultured again in the CO2 incubator for 4 hours, and then the absorbance (O.D. value) was measured at 450 nm using a spectrophotometer.

[1] = system: Wistar rat (recipient) with transplanted Lewis rat heart; test: Allogeneic heart transplantation (abdominal heterotopic, Lewis donor to Wistar recipient); assay type: in vivo
Experimental: Hearts of 8-week-old Lewis rats (donor) weighing about 250 g were extracted and performed abdominal heterotopic heart transplantation into the abdominal cavity of 8-week-old Wistar rat (recipient) weight about 300 g by cross-clamping caudal vena cava and the abdominal aorta of recipient both proximally and distally to the anastomotic site.
The heart rate of each rat in an untreated control group and the experimental groups was measured by abdominal palpation from the date of the heart transplant, and the heart rate was classified as ++++ (strong and fast heartbeat), +++ (strong or fast heartbeat), ++ (faint and slow but distinct heartbeat), + (faint but steady heartbeat), and ±0 (intermittent heartbeat).

[2] = system: streptozotocin induced diabetic Fischer 344 rats with transplanted Lewis rat islet cells; test: Allogeneic pancreatic islet cell transplantation - single intraperitoneal administration; assay type: in vivo; conditions: single administration
Experimental: (§1) Streptozotocin is a drug that destroys pancreatic islet cells to induce diabetes and is used to create experimental diabetic animal models. Allogeneic islets were transplanted into the livers of streptozotocin induced diabetic rat by injection into the portal vein. The functioning of transplanted islets was assessed by daily measurements of blood glucose levels. Islets were considered rejected when the blood glucose level was 200 mg/dl on two consecutive days.
(§2) 35 mg/kg of streptozotocin (50 mg/mL) dissolved in a 0.1 M citrate buffer solution (pH 4.5) was intraperitoneally injected into 8-week-old male Fischer 344 rats (F344) weighing about 200 to 220 g. Then, the blood glucose level was measured after 1 week, and the first day when the blood glucose level increased over 300 mg/dl and the increase was repeated more than twice was considered as the date of diagnosis of diabetes. The rats were used in transplantation 3 weeks after the administration of streptozotocin.
(§3) Pancreases of 8-week-old male Lewis rats were extracted on the 3 weeks after the diabetes was induced in Fischer rats, and islet cells were isolated. The isolated islet cells were cultured in a CO2 incubator at 37° C. for a day, and the cultured islet cells were transplanted into the diabetic Fischer rats.
Cyclosporin (5 mg/kg), colchicine (10 μg/kg and 40 μg/kg), and colchicine derivative compounds (compounds 1, 7, 9, 14, 15, 17, 18, 22, and 23; 50 μg/kg) were administered to the Fischer rats, to which the islet cells were transplanted, for 14 days from the date of transplantation, and the maintenance of blood glucose levels was examined until rejection occurred from the date of transplantation.

[3] = system: streptozotocin induced diabetic Fischer 344 rats with transplanted Lewis rat islet cells; test: Allogeneic pancreatic islet cell transplantation - combined intraperitoneal administration; assay type: in vivo; conditions: i.p. for 14 days
Experimental: as §1, §2, §3
However, considering the interaction between the two drugs, the two drugs were introduced in different syringes and injected to right and left sides of the abdominal cavity, respectively, and the measurement results are shown in the following table 4.

[4] = system: streptozotocin induced diabetic Fischer 344 rats with transplanted Lewis rat islet cells; test: Allogeneic pancreatic islet cell transplantation - continuous combined intraperitoneal administration; assay type: in vivo
Experimental: as §1, §2, §3

[5] = 10 μg/kg intravenously for 14 days
[6] = CsA (5 mg/kg) & Compound 14 (40 μg/kg) for 2 weeks, then continuously injected
[7] = CsA (5 mg/kg) & Compound 14 (500 μg/kg) for 2 weeks, then continuously injected
[8] = CsA (5 mg/kg) & Compound 14 (500 μg/kg) for 2 weeks, then only CsA (5 mg/kg)
[9] = CsA (5 mg/kg) & Compound 14 (500 μg/kg) for 2 weeks, then only compound 14 (500 μg/kg)
[10] = CsA (5 mg/kg) & Compound 14 (500 μg/kg) injected for 2 weeks

Question: `COc1cc2c(c(OC)c1OC)-c1ccc(OC)c(=O)cc1C(NC(=O)OCC1c3ccccc3-c3ccccc31)CC2` (stereo not shown) [Compound 14, (1,2,3,10-tetramethoxy-9-oxo-5,6,7,9-tetrahydro-benzo[a]heptalen-7-yl)-carbamic acid 9H-fluoren-9-ylmethyl ester] was tested. Which cytotoxicity (spleen cells of rats) did it give?
Answer: no cytotoxicity

Question: And the “Average number of days for which heart rate was kept” value [1, 5]?
Answer: >107 ± 86.6 days

Question: And the “Number of days for which heart rate was kept (individual rats)” value [1, 5]?
Answer: 9 day and over 139 day and over 173 day and > 139 day and > 173 day

Question: And the “Average number of days for which heart rate was kept” value ([1]; 40 μg/kg intravenously for 14 days)?
Answer: >173.5 ± 0.7 days

Question: And the “Number of days for which heart rate was kept (individual rats)” value ([1]; 40 μg/kg intravenously for 14 days, * = death)?
Answer: over 173 day and > 174 day and > 173 day

Question: What about the “Average number of days for which islet cell function was maintained” value ([2]; 10 μg/kg i.p. for 14 days) of the same compound?
Answer: 5.5 ± 0.71 days

Question: What about the “Number of days for which islet cell function was maintained (individual rats)” value ([2]; 10 μg/kg i.p. for 14 days) of the same compound?
Answer: 5, 5 day

Question: And the “Average number of days for which islet cell function was maintained” value ([2]; 40 μg/kg i.p. for 14 days)?
Answer: 6.5 ± 0.71 days

Question: And the “Number of days for which islet cell function was maintained (individual rats)” value ([2]; 40 μg/kg i.p. for 14 days, * = death)?
Answer: 6 days and 7 days

Question: And the “Average number of days for which islet cell function was maintained” value ([3]; 10 μg/kg combined with CsA (5 mg/kg))?
Answer: 28.7 days

Question: And the “Average number of days for which islet cell function was maintained” value ([3]; 40 μg/kg combined with CsA (5 mg/kg))?
Answer: >61.8 days

Question: And the “Average number of days for which islet cell function was maintained” value [4, 6]?
Answer: >63 ± 9.9 days

Question: What about the “Number of days for which islet cell function was maintained (individual rats)” value [4, 6] of the same compound?
Answer: 56 days and > 70 days

Question: What about the “Average number of days for which islet cell function was maintained” value [4, 7] of the same compound?
Answer: 67.7 ± 24.0 days

Question: And the “Number of days for which islet cell function was maintained (individual rats)” value [4, 7]?
Answer: 40 days and 81 days and 82 days

Question: What about the “Average number of days for which islet cell function was maintained” value [4, 8] of the same compound?
Answer: 48.5 ± 12.0 days

Question: And the “Number of days for which islet cell function was maintained (individual rats)” value [4, 8]?
Answer: 40 days and 57 days

Question: And the “Average number of days for which islet cell function was maintained” value [4, 9]?
Answer: 52.7 ± 52.3 days

Question: And the “Number of days for which islet cell function was maintained (individual rats)” value [4, 9]?
Answer: 20 days and 25 days and 113 days

Question: What about the “Average number of days for which islet cell function was maintained” value [4, 10] of the same compound?
Answer: 29 ± 3.61 days

Question: And the “Number of days for which islet cell function was maintained (individual rats)” value [4, 10]?
Answer: 25 days and 30 days and 32 days

Question: And the “islet cell function improved, times compared to 2 weeks combined administration only” value ([4]; two drugs continuously administered together after combined administration for 2 weeks)?
Answer: about 2.3 times
